Experiments:
K562 = assay: Cytotoxicity against human K562 cells; type: functional; conditions: read-out: LC50 (the source's name)
[1] = target: Phospholipase A2 (Homo sapiens) (UniProt P04054); assay: Inhibition of PLA2 at 50 ug/ml
Chain of Phospholipase A2 (Homo sapiens) (P04054 23-148 limits assumed): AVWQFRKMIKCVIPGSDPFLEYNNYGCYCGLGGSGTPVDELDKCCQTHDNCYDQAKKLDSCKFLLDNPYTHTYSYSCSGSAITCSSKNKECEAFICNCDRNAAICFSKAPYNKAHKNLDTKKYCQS

In the case of `C#C/C=C\CCCCCCCCCCCCCC/C=C\CCCC/C=C\CCCCC#C[C@H](O)C#CCCCCCCCC[C@H](O)C#C` [PETROCORTYNE D], the CC50 (K562) is reported as 45 µM.

In the case of `C#C/C=C\CCCCCCCCCCCCCC/C=C\CCC/C=C/C(O)CCCCC#C[C@H](O)C#CCCCCCC/C=C/[C@@H](O)C#C` (some centres undefined) [PETROCORTYNE E], the inhibition [1] is reported as 48% and the CC50 (K562) is reported as 7 µM.

For `C#C/C=C\CCCCCCCCCCCCCC/C=C\CCCCC(O)/C=C/CCCC#C[C@H](O)C#CCCCCCC/C=C/[C@@H](O)C#C` (some centres undefined) [PETROCORTYNE F], the inhibition [1] was 25% and the CC50 (K562) was 21 µM.

Compound `C#C/C=C\CCCCCCCCCCCCC/C=C/C(O)CCCC/C=C\CCCCC#C[C@H](O)C#CCCCCCC/C=C/[C@@H](O)C#C` (some centres undefined) [PETROCORTYNE G] has an inhibition [1] of 36% and a CC50 (K562) of 30 µM.

`C#C/C=C\CCCCCCCCCCCCCCC(O)/C=C/CCC/C=C\CCCCC#C[C@H](O)C#CCCCCCC/C=C/[C@@H](O)C#C` (some centres undefined) [PETROCORTYNE H] showed an inhibition [1] of 32% and a CC50 (K562) of 11 µM.
